Experimental data reported in patent US7390783B2, “Charged phospholipid compositions and methods for their use” (Ottawa Heart Institute Research Corporation, priority 2000, dated 2008).

What was measured:
[1] = tested on: VLDL, LDL and HDL in human plasma; assay: Lipoprotein charge in human plasma incubated with PI or DOTAP vesicles; assay type: biochemical; conditions: 24 h at 4° C.; for Lipoprotein Surface Charge LDL: no lipid 2.5; for Lipoprotein Surface Charge VLDL: no lipid 5.5; for Lipoprotein Surface Charge HDL: no lipid 11.8
Description: Different concentrations as shown below of negatively charged phospholipid (PI) or positively charged phospholipid (DOTAP) were added to human plasma and the surface charge on the lipoproteins was determined. The human plasma was incubated with PI or dioleoyl trimethylammonium-propane (DOTAP) vesicles for 24 h at 4° C. and then electrophoresed on 0.5% agarose. Lipoprotein charge was calculated from electrokinetic analyses.

cytomegalovirus (CMV) = assay: Clearance of cytomegalovirus from the plasma of a rabbit; assay type: in vivo; conditions: 36 mg vesicles; blood sample 10 minutes post injection
Description: Rabbits were injected with 8×10^10 cytomegalovirus (CMV) particles and then with 36 mg of either uncharged vesicles, phosphatidylcholine (PC), or anionic vesicles, phosphatidylinositol (PI). Blood samples were taken at specific intervals and the amount of virus in the blood samples was determined by immunometric analysis.

[2] = tested on: HDL, LDL and VLDL cholesterol; assay: PI injections into hypercholesterolemic (cholesterol-fed) rabbits: lipoprotein cholesterol levels; assay type: in vivo, rabbit; conditions: 36 mg 2× daily for 7 days
Description: Referring now to FIG. 8, there is graphically depicted the effect of PI injection on lipoprotein cholesterol levels in hypercholesterolemic rabbits. Rabbits were fed a diet enriched in cholesterol for a period of 4 weeks to increase the levels of cholesterol in the LDL and VLDL particles in the bloodstream. One half of the study rabbits were then injected with 36 mg of PI 2× daily for 7 days. On day 7, plasma samples were drawn and lipoproteins were fractionated by size exclusion chromatography on two Superose 6 columns. Shown are gel filtration profiles for the different rabbit plasmas, which illustrate the levels of cholesterol in the various lipoprotein fractions. The untreated hypercholesterolemic rabbit plasma sample is shown to have high levels of LDL and VLDL cholesterol. PI injections caused a greater than 7-fold reduction in VLDL cholesterol and about a 2.5-fold reduction in LDL cholesterol levels over the 7 day period. […] PI therefore can be used to treat hypercholesterolemia and reduce plasma LDL and VLDL cholesterol levels.

Compound: CCCCCCCC/C=C\CCCCCCCC(=O)O[C@H](COC(=O)CCCCCCCCCCCCCCC)COP(=O)(O)O[C@@H]1[C@H](O)[C@H](O)[C@@H](O)[C@H](O)[C@H]1O [PI, 1-palmitoyl-2-oleoyl phosphatidylinositol]
- Lipoprotein Surface Charge LDL ([1]; 5 mg/ml): 2.9 -mV
- Lipoprotein Surface Charge VLDL ([1]; 5 mg/ml): 6.3 -mV
- Lipoprotein Surface Charge HDL ([1]; 5 mg/ml): 12.4 -mV
- Lipoprotein Surface Charge LDL ([1]; 10 mg/ml): 3.3 -mV
- Lipoprotein Surface Charge VLDL ([1]; 10 mg/ml): 6.8 -mV
- Lipoprotein Surface Charge HDL ([1]; 10 mg/ml): 12.8 -mV
- Lipoprotein Surface Charge LDL ([1]; 50 mg/ml): 3.4 -mV
- Lipoprotein Surface Charge VLDL ([1]; 50 mg/ml): 6.9 -mV
- Lipoprotein Surface Charge HDL ([1]; 50 mg/ml): 13.2 -mV
- Lipoprotein Surface Charge LDL ([1]; 100 mg/ml): 3.6 -mV
- Lipoprotein Surface Charge VLDL ([1]; 100 mg/ml): 7.1 -mV
- Lipoprotein Surface Charge HDL ([1]; 100 mg/ml): 13.4 -mV
- increased rate of clearance of the CMV injectate relative to PC (cytomegalovirus (CMV)): 1.7 fold
- effect on amount of cholesterol in the HDL particles [2]: slightly increased
- reduction in LDL cholesterol levels [2]: ~2.5 fold
- reduction in VLDL cholesterol [2]: greater than 7 fold
